Biological target: recombinant EsigPBP3
Experiment: fluorescence competitive binding assay (FCBA) with 1-NPN probe
Design: species or system Endoclita signifer
Conditions: for IC50: displacement of 1-NPN, 20 mM Tris-HCl pH 7.4, ligands 2-24 µM; for IC50 / Ki: 2 µM EsigPBP3 and 2 µM 1-NPN; for Ki: from IC50 by Ki = [IC50]/(1 + [1-NPN]/K1-NPN)
Method: Fluorescence competition assays were conducted using 1-NPN ([…]) as a selective fluorescence probe to measure the affinity of ligands for binding to the recombinant EsigPBP3 [49]. […] The emission wavelength range was set from 380 nm to 520 nm. After the fluorescence intensity stabilized, scans were performed and the emission was recorded (both excitation and emission slit widths were set to 10 nm). A final concentration of 2 μM EsigPBP3 solution was prepared in 20 mM Tris-HCl buffer (pH 7.4), and the ligands were dissolved in chromatographically pure methanol as 1 mM stock solutions. […] The compound was added proportionally to a mixture with a final concentration of 2 µM EsigPBP3 protein and 2 µM 1-NPN. The ability of ligands to bind to the EsigPBP3 protein was monitored by the decrease in fluorescence intensity.

Row | SMILES | IC50 | Ki (pH 7.4) | Kd (binding curve and Scatchard plot, 2 µM EsigPBP3, 1-NPN 2-24 µM, pH 7.4, read-out: dissociation constant (Kd) of EsigPBP3 for the reporter ligand 1-NPN)
1 | CCc1ccccc1CC [benzene, 1,2-diethyl-] | 7.19 µM | 4.83 µM | –
2 | Cc1cc(C)cc(C)c1 [1,3,5-trimethyl-benzen] | > 24 µM | > 16.1 µM | –
3 | CC1=CC[C@H](C(C)C)C=C1 [α-phellandrene] | 5.32 µM | 3.57 µM | –
4 | CC1=CCC2CC1C2(C)C (stereo not drawn) [(−)-α-pinene] | 7.85 µM | 5.27 µM | –
5 | C=C1C2CCC(C2)C1(C)C (stereo not shown) [camphene] | 9.85 µM | 6.61 µM | –
6 | CC(C)(O)c1ccccc1 [2-phenyl-2-propanol] | > 24 µM | > 16.1 µM | –
7 | c1ccc(Nc2cccc3ccccc23)cc1 [1-NPN, reference compound] | – | – | 3.36 µM
8 | CC12CCC(CC1)C(C)(C)O2 [eucalyptol] | > 24 µM | > 16.1 µM | –
9 | CCc1ccc(C(C)=O)cc1 [4-ethylacetophenone] | 8.26 µM | 5.55 µM | –
10 | C=C1CCC2CC1C2(C)C (stereo not drawn) [(−)-β-pinene] | 4.77 µM | 3.2 µM | –
